What was measured:
TRPC5 [1] = molecular target: T1, TRPC5 (Homo sapiens, UniProt Q9UL62); assay: TRPC5 automated patch clamp assay (Qpatch), current block after rosiglitazone stimulation; type: cell-based; conditions: Table 6; HEK293 cells overexpressing TRPC5; read-out: TRPC5-QPatch IC50
T1 construct: expressed in transfected cells; host or cells: HEK 293
T1 sequence (Q9UL62 1-973): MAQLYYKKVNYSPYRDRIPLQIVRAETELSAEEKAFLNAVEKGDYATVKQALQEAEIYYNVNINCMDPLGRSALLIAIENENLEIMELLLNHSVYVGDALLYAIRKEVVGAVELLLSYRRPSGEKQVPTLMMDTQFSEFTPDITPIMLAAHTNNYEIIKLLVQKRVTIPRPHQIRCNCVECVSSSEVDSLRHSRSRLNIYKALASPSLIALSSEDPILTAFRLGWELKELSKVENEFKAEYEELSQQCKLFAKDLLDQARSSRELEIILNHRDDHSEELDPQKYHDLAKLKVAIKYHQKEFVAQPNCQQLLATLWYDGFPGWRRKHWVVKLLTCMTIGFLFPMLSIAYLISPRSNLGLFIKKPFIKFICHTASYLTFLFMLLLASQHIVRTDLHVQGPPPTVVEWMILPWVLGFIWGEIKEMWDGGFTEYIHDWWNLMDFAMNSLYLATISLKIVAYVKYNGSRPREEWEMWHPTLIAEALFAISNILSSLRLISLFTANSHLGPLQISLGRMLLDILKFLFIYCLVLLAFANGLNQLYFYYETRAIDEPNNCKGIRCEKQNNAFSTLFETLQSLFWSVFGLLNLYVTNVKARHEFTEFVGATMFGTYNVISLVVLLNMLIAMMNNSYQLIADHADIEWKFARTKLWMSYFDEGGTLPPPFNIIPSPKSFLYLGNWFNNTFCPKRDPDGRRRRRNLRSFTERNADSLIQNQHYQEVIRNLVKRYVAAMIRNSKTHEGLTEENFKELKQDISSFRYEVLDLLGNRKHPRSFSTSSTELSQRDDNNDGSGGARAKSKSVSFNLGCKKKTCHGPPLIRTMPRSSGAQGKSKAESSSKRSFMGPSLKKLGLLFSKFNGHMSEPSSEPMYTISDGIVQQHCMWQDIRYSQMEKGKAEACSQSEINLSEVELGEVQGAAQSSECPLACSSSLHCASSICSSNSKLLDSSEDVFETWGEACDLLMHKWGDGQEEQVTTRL
Outline: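 HEK 293 cells expressing human TRPC5, whole-cell QPatch recording; 1 μM buffered free internal Ca2+, external pH 7.4. Ramps −100 to +100 mV over 300 ms every 10 s from −60 mV holding; channel activated by Rosiglitazone (30 uM) after ≥60 s control. IC50 from Hill fit.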

TRPC5 [2] = molecular target: T1, TRPC5; assay: TRPC5 fluorescence assay, membrane potential dye, flexstation (FLEX); type: cell-based; conditions: Table 6; HEK293 cells overexpressing TRPC5
Protocol: HEK 293 cells expressing human TRPC5 cells were trypsinised, counted and seeded in black, clear-bottomed 96-well plates at a density of 50,000 cells per well and incubated overnight. Next day, the cells were loaded with membrane potential dye. Dye solution was made up according to the manufacturer's instructions in HEPES buffered Hank's balanced salt solution (HBSS). Dye solution (10 μL) was added to the wells and incubated at 37° C. for 1 hour. The test compounds and standard inhibitors were added to the wells and incubated at room temperature for 10 minutes. The plates were then placed in the flexstation and fluorescence monitored every 1.52 seconds. After 20 seconds, 10 μL of the appropriate standard agonist was added and the fluorescence monitored for 2 minutes at ex/emm: 530 nm/565 nm.

Compound	IC50 (TRPC5 [1]) [nM]	IC50 (TRPC5 [2]) [nM]
O=c1[nH]ncc(N2CCc3c(ncn3Cc3ncccc3C(F)(F)F)C2)c1Cl	1000 to 5000	0.01 to 1000
O=c1[nH]ncc(N2CCc3c(cnn3Cc3cccnc3CC(F)(F)F)C2)c1Cl	–	1000 to 5000
O=c1[nH]ncc(N2CCc3nn(-c4ccccc4OC(F)(F)F)cc3C2)c1Cl	–	1000 to 5000
O=c1[nH]ncc(N2CCc3c(cnn3Cc3ccc(F)cc3C(F)(F)F)C2)c1Cl [drawing 864]	0.01 to 1000	0.01 to 1000
O=c1[nH]ncc(N2CCc3c(nnn3C3CCCCC3)C2)c1Cl	5000 to 10000	10000 to 500000
CCc1ncccc1Cn1cnc2c1CCN(c1cn[nH]c(=O)c1Cl)C2	0.01 to 1000	0.01 to 1000
O=c1[nH]ncc(N2CCc3c(ncn3Cc3ccc(C(F)(F)F)nc3)C2)c1Cl	10000 to 500000	10000 to 500000
O=c1[nH]ncc(N2CCc3c(cnn3-c3ccccc3OC(F)(F)F)C2)c1Cl	1000 to 5000	0.01 to 1000
O=c1[nH]ncc(N2CCc3c(ncn3Cc3ccccc3C(F)(F)F)C2)c1Br [drawing 862]	0.01 to 1000	0.01 to 1000
O=c1[nH]ncc(N2CCc3c(ncn3Cc3ccccc3C(F)(F)F)C2)c1Br [drawing 838]	1000 to 5000	0.01 to 1000
CCc1cccnc1Cn1cnc2c1CCN(c1cn[nH]c(=O)c1Cl)C2	1000 to 5000	0.01 to 1000
Cc1ccccc1-n1cc2c(n1)CCN(c1cn[nH]c(=O)c1Cl)C2	10000 to 500000	1000 to 5000
N#Cc1c(N2CCc3c(ncn3Cc3cncc(F)c3)C2)cn[nH]c1=O	–	0.01 to 1000
O=c1[nH]ncc(N2CCc3c(cnn3Cc3ccccc3C(F)(F)F)C2)c1Cl	0.01 to 1000	0.01 to 1000
O=c1[nH]ncc(N2CCc3c(ncn3C3CCCCC3)C2)c1Cl	5000 to 10000	10000 to 500000
CCc1ncccc1Cn1nnc2c1CCN(c1cn[nH]c(=O)c1C#N)C2 [drawing 895]	5000 to 10000	10000 to 500000
O=c1[nH]ncc(N2CCc3c(ncn3Cc3ccc(F)nc3C(F)(F)F)C2)c1Cl	0.01 to 1000	1000 to 5000
Cc1ccccc1-n1cnc2c1CCN(c1cn[nH]c(=O)c1Cl)C2	1000 to 5000	10000 to 500000
CCc1ncccc1Cn1nnc2c1CCN(c1cn[nH]c(=O)c1Cl)C2	1000 to 5000	0.01 to 1000

Compound	IC50 (TRPC5 [1]) [nM]	IC50 (TRPC5 [2]) [nM]
C[C@@H](c1ccccc1C(F)(F)F)n1nnc2c1CCN(c1cn[nH]c(=O)c1Cl)C2 [drawing 908]	–	0.01 to 1000
N#Cc1c(N2CCc3c(nnn3Cc3ccc(F)cc3C(F)(F)F)C2)cn[nH]c1=O	1000 to 5000	10000 to 500000
O=c1[nH]ncc(N2CCc3c(nnn3Cc3ccccc3C(F)F)C2)c1Cl	0.01 to 1000	0.01 to 1000
C[C@H](c1ccccc1C(F)(F)F)n1nnc2c1CCN(c1cn[nH]c(=O)c1Cl)C2	–	0.01 to 1000
O=c1[nH]ncc(N2CCc3c(ncn3Cc3cnccc3C(F)(F)F)C2)c1Cl	1000 to 5000	0.01 to 1000
Cc1ccccc1Cn1cnc2c1CCN(c1cn[nH]c(=O)c1Cl)C2 [drawing 840]	0.01 to 1000	0.01 to 1000
N#Cc1ccccc1-n1cnc2c1CN(c1cn[nH]c(=O)c1C#N)CC2 [drawing 841]	1000 to 5000	0.01 to 1000
O=c1[nH]ncc(N2CCc3c(ncn3Cc3ccc(F)cc3C(F)F)C2)c1Cl [drawing 892]	0.01 to 1000	0.01 to 1000
O=c1[nH]ncc(N2CCc3ncn(Cc4ccc(C(F)(F)F)cc4)c3C2)c1Cl	10000 to 500000	1000 to 5000
O=c1[nH]ncc(N2CCc3c(ncn3Cc3ccccc3C(F)(F)F)C2)c1Cl [drawing 850]	0.01 to 1000	0.01 to 1000
O=c1[nH]ncc(N2CCc3c(ncn3Cc3ccccc3)C2)c1Cl [drawing 880]	1000 to 5000	0.01 to 1000
O=c1[nH]ncc(N2CCc3c(ncn3-c3cccc(C(F)(F)F)c3)C2)c1Cl	1000 to 5000	0.01 to 1000
N#Cc1c(N2CCc3ncn(Cc4ccccc4C(F)F)c3C2)cn[nH]c1=O	–	0.01 to 1000
O=c1[nH]ncc(N2CCc3nn(Cc4ccc(F)cc4C(F)(F)F)cc3C2)c1Cl	–	0.01 to 1000
C[C@H](c1ccccc1C(F)(F)F)n1nnc2c1CCN(c1cn[nH]c(=O)c1C#N)C2	–	0.01 to 1000
O=c1[nH]ncc(N2CCc3ncn(-c4ccccc4C(F)(F)F)c3C2)c1Cl [drawing 869]	–	1000 to 5000
O=c1[nH]ncc(N2CCc3c(ncn3Cc3cccnc3C(F)(F)F)C2)c1Cl	1000 to 5000	1000 to 5000
Cc1nc2c(n1Cc1ccccc1C(F)(F)F)CCN(c1c(Cl)cn[nH]c1=O)C2	–	10000 to 500000
O=c1[nH]ncc(N2CCc3c(nnn3Cc3ccccc3OC(F)F)C2)c1Cl	–	0.01 to 1000

Compound	IC50 (TRPC5 [1]) [nM]	IC50 (TRPC5 [2]) [nM]
O=c1[nH]ncc(N2CCc3ncn(Cc4cnccc4C(F)(F)F)c3C2)c1Cl	–	10000 to 500000
CCc1cccnc1Cn1cnc2c1CN(c1cn[nH]c(=O)c1Cl)CC2	–	5000 to 10000
Cc1ncccc1Cn1cnc2c1CCN(c1cn[nH]c(=O)c1Cl)C2	1000 to 5000	1000 to 5000
O=c1[nH]ncc(N2CCc3c(nnn3Cc3ccc(F)cc3C(F)F)C2)c1Cl	–	0.01 to 1000
O=c1[nH]ncc(N2CCc3c(nnn3Cc3ccccc3C(F)(F)F)C2)c1Cl [drawing 859]	0.01 to 1000	0.01 to 1000
O=c1[nH]ncc(N2CCc3ncn(-c4ccccc4C(F)(F)F)c3C2)c1Cl [drawing 847]	5000 to 10000	10000 to 500000
N#Cc1ccccc1-n1cnc2c1CN(c1cn[nH]c(=O)c1C#N)CC2 [drawing 898]	–	1000 to 5000
O=c1[nH]ncc(N2CCc3c(ncn3Cc3ccccc3C(F)(F)F)C2)c1C1CC1	5000 to 10000	5000 to 10000
O=c1[nH]ncc(N2CCc3c(nnn3Cc3cccnc3CC(F)(F)F)C2)c1Cl	–	0.01 to 1000
N#Cc1c(N2CCc3c(ncn3Cc3ccccc3C(F)(F)F)C2)cn[nH]c1=O [drawing 873]	0.01 to 1000	0.01 to 1000
O=c1[nH]ncc(N2CCc3c(cnn3-c3ccccc3C(F)(F)F)C2)c1Cl	–	1000 to 5000
Cc1cccc(C)c1Cn1cnc2c1CCN(c1cn[nH]c(=O)c1Cl)C2	–	0.01 to 1000
CC[C@@H](c1cncc(F)c1)n1cnc2c1CCN(c1cn[nH]c(=O)c1Cl)C2	5000 to 10000	0.01 to 1000
CC(c1ccccc1C(F)(F)F)n1nnc2c1CCN(c1cn[nH]c(=O)c1C#N)C2 (stereo not drawn)	–	5000 to 10000
N#Cc1c(N2CCc3ncn(Cc4cncc(F)c4)c3C2)cn[nH]c1=O	–	1000 to 5000
Cc1ncccc1Cn1cnc2c1CN(c1cn[nH]c(=O)c1Cl)CC2	–	1000 to 5000
O=c1[nH]ncc(N2CCc3c(cnn3Cc3ccc(F)cc3C(F)(F)F)C2)c1Cl [drawing 907]	–	0.01 to 1000
CCOc1cccc(Cn2cnc3c2CCN(c2cn[nH]c(=O)c2Cl)C3)n1	–	1000 to 5000
CC[C@H](c1cccnc1)n1nnc2c1CCN(c1cn[nH]c(=O)c1Cl)C2	–	1000 to 5000

From US20260184708A1, “PYRIDAZINONES AND METHODS OF USE THEREOF” (GFB (ABC), LLC, priority 2017, published 2026)
